Results from the COVID Moonshot data (paper PMC11187573), “Identification of SARS-CoV-2 Mpro inhibitors through deep reinforcement learning for de novo drug design and computational chemistry approaches” (RSC Medicinal Chemistry, 2024).

Columns and labels:
[1] = target: SARS-CoV-2 Main Protease (SARS-CoV-2) (UniProt P0DTD1)
Method: Compounds were seeded into assay-ready plates (Greiner 384 low volume, cat 784900) using an Echo 555 acoustic dispenser, and DMSO was back-filled for a uniform concentration in assay plates (DMSO concentration maximum 1%) Screening assays were performed in duplicate at 20µM and 50µM. […] Dose response assays were performed in 12 point dilutions of 2-fold, typically beginning at 100µM. […] Reagents for Mpro assay were dispensed into the assay plate in 10µl volumes for a final volume of 20µL.
Mpro was pre-incubated for 15 minutes at room temperature with compound before addition of substrate and a further 30 minute incubation. Protease reaction was measured in a BMG Pherastar FS with a 480/520 ex/em filter set. Raw data was mapped and normalized to high (Protease with DMSO) and low (No Protease) controls using Genedata Screener software.

[2] = target: SARS-CoV-2 Main Protease (SARS-CoV-2) (UniProt P0DTD1); remark: listed apart in the source

Structure (SMILES) | inhibition ([1]; 20.0 µM) [%] | inhibition ([1]; 50.0 µM) [%] | IC50 [2] [µM] | inhibition ([2]; 20.0 µM) [%] | relative solubility at 20 uM | relative solubility at 100 uM | inhibition ([2]; 50.0 µM) [%]
CC(=O)Nc1ccc(C#N)cc1CN1CCN(C(=O)CCl)CC1 | 20.6 | 43.4 | 17.5 | 59.2 | 1 | 1.01 | 
Cn1cnnc1NC(=O)Cc1cccc(Cl)c1 | 5.99 | -26 |  |  | 1.01 | 1 | -10.5
CS(=O)(=O)NCCc1ccccc1O |  | 14.4 |  | 0 | 1 | 1 | 0
C=CC(=O)N(c1ccc(C(C)(C)C)cc1)C(C(=O)NC(C)(C)C)c1cncc(OC)c1 (centres undefined) | -13.4 | -6.87 |  | 0.0741 | 1 | 0.99 | 8.47
O=C(c1ccccc1)N1CCN(C(=O)C2CCOCC2)CC1 | 2.9 | 6.27 |  | 0.98 | 1 | 1 | 5.34
Cc1ccncc1NC(=O)C(C)(C)c1cccc(Cl)c1 | 49.3 | 68 | 24.5 |  | 1 | 1 | 66.9
C=CC(=O)N(c1ccc(C(C)C)nc1)C(C(=O)NC(C)(C)C)c1cccnc1 (centres undefined) | 11.7 | 11.4 |  | 0 | 1 | 0.99 | 
CCOc1ccccc1OC1CCN(C(=O)c2cc(=O)[nH]c3cc(F)ccc23)C1 (centres undefined) | 13.4 | 21.4 |  |  | 1 | 0.99 | 0
C=CC(=O)N(c1ccc(C(C)(C)C)cc1)C(C(=O)Nc1ccc(F)cc1)c1cccnc1 (centres undefined) | 17 | 36 |  | 8.55 | 0.98 | 0.86 | 31.9
O=C(CCl)N1CCN(Cc2cccc(CNC(=O)N3CCOCC3)c2)CC1 | 11.7 | 32.4 | 50.3 |  | 1 | 1 | 95.6
Cc1ccncc1NC(=O)Cc1cc(Cl)c2c(c1)OCCO2 | 9.83 | 22.2 |  |  | 1 | 1 | 10.9
Cn1nnnc1NC(=O)Cc1csc(C(C)(C)C)n1 | 1.85 | 5.13 |  |  | 0.99 | 1 | 0
CO[C@H](C)C(=O)Nc1cnccc1C (stereo in doubt) | 4.95 | 8.97 |  |  | 1.01 | 1 | 6.56
Cc1ccncc1NC(=O)C(C)Cc1ccccc1 (centres undefined) | -54.9 | -128 |  |  | 1 | 1 | 0
C=CC(=O)N(c1ccc(C(C)(C)C)cc1)C(C(=O)Nc1c(C)cccc1CC)c1cccnc1 (centres undefined) |  | -3.74 |  | 0 | 0.98 | 0.69 | 0
Cc1ccncc1Cn1ccccc1=O | 3.62 | 7.02 |  |  | 1 | 1 | 6.5
COc1ccccc1OC(C)CNC(=O)c1cc(=O)[nH]c2cc(F)ccc12 (centres undefined) | 20 | 59 |  |  | 1 | 0.99 | 5.65
C/C=C/C(=O)Nc1cccc(OC2CC(=O)N2)c1 (centres undefined) | -3.03 | 4.68 |  |  | 1 | 1 | 0
COC1CCN(c2ccc(S(N)(=O)=O)cc2)CC1 | 2.98 | 6.82 |  | 29.7 | 1 | 1 | 35.4
Cc1cc(C)cc(NC(=O)Cn2cncc2C)c1 | -2.21 | 2.72 |  |  | 1 | 1 | 0
O=C(NCCc1ccc2c(c1)CCO2)NCc1cccc(N2C(=O)NC3(CCCC3)C2=O)c1 | -29 | -12 |  |  | 0.95 | 0.97 | -30.5
CC1CN(Cc2ccccc2NC(=O)NCc2cnsc2)CC(C)O1 (centres undefined) | 1.48 | 4.44 |  | 0 | 1 | 0.98 | 1.33
Cc1ccncc1NC(=O)CCc1ccc(F)cc1 | 1.95 | 5.92 |  |  | 1 | 1 | 6.51
Cn1cnnc1CNC(=O)Nc1cc(C(F)(F)F)c[nH]c1=O | 7.84 | 14.8 |  |  | 1 | 1 | 3.33
C=CC(=O)N(c1ccc(C(C)(C)C)cc1)C(C(=O)NCCc1cccc(F)c1)c1cncc(C#N)c1 (centres undefined) | 49.6 | 87.1 | 2.47 |  | 0.57 | 0.46 | 89.2

Structure (SMILES) | inhibition ([1]; 20.0 µM) [%] | inhibition ([1]; 50.0 µM) [%] | IC50 [2] [µM] | inhibition ([2]; 20.0 µM) [%] | relative solubility at 20 uM | relative solubility at 100 uM | inhibition ([2]; 50.0 µM) [%]
O=C(CCl)N1CCCC(c2nc(-c3cccnc3)nc3ccccc23)C1 (centres undefined) | 7.84 | 31.8 |  |  | 0.9 | 0.89 | 100
COc1cccc2c1OCC(NC(=O)c1cc(=O)[nH]c3ccc(F)cc13)C2 (centres undefined) | 2.25 | 19 |  |  | 0.96 | 0.81 | 11
C=CC(=O)N(c1ccc(C(C)(C)C)cc1)C(C(=O)NCC1CCCO1)c1cccnc1 (centres undefined) | 70.8 | 44.1 |  | 0 | 1 | 0.99 | 25.6
CCCC(C(=O)Nc1cnccc1C)c1cccc(Cl)c1 (centres undefined) | 77.9 | 90.6 | 5.48 |  | 1 | 0.99 | 78.3
Cc1ccncc1-c1nnc(-c2cccc(Cl)c2)o1 | 1.73 | 13.8 |  |  | 1 | 0.99 | 0.631
Cc1noc(CC(NC(=O)C(C)Cn2ccnc2)c2ccccc2)n1 (centres undefined) |  | -2.38 |  | 0 | 1 | 1 | 0
O=C1CC(Oc2cccc(C(=O)NCc3cncnc3)c2)N1 (centres undefined) | 21.6 | 25.1 |  |  | 1 | 1 | 28.1
CC(C)(Cn1c(C2CCC(=O)N2)nnc1N1CCCC(C(N)=O)C1)c1ccccc1F (centres undefined) | -2.8 | 6.51 |  |  | 1 | 0.99 | 29.4
Cc1ccnc(C)c1NC(=O)NCc1cccc(N2CCOCC2)c1 | 2.7 | -9.74 |  |  | 1 | 1 | 0
Cc1nnc(NC(=O)Cc2cccc(Cl)c2F)s1 | 1.02 | -14.8 |  |  | 0.99 | 0.68 | 0
Cc1ccnc(NC(=O)Cc2ccc3ccccc3c2)c1 | 3.57 | 8.23 |  | 0 | 0.98 | 0.94 | 
O=C1CN(c2nnc(C3CCC(=O)N3)n2CCn2cc(Cl)cn2)CCN1 (centres undefined) | -2.26 | -0.405 |  |  | 1 | 1 | 35.3
O=C(Nc1ccc(Oc2ncccn2)cc1)C(=O)N1CCN(Cc2cccs2)CC1 | -21 | -13.8 |  | 0 | 1 | 1 | 
O=C(Nc1nncn1C1CC1)[C@@H]1CCOc2ccc(Cl)cc21 (stereo in doubt) | -7.38 | 19.5 |  |  | 0.99 | 0.99 | -10.4
C=CC(=O)N(c1ccc(C(C)(C)C)cc1)C(C(=O)Nc1ccccc1OC)c1cccnc1 (centres undefined) | 26.3 | 44.2 |  | 0 | 0.97 | 0.95 | 25.4
COCc1cc(Cl)cc(CN2CCN(C(=O)CCl)CC2)c1 | 97.6 | 99.9 | 1.31 |  | 0.98 | 0.99 | 118
NS(=O)(=O)c1ccc2c(c1)CN(CC1CCN(C(=O)CCl)CC1)CC2 | 30.8 | 60.3 | 31.2 |  | 1 | 1 | 91.1
COc1ccccc1OCCNC(=O)c1cc(=O)[nH]c2cc(F)ccc12 | -6.6 | 51.7 |  |  | 0.88 | 0.66 | 9.64
Cc1ccncc1NC(=O)CCNC(=O)c1ccccc1F |  | -15.8 |  | 0 | 1 | 1 | 0
CCN(CC1COc2ccccc2O1)C(=O)c1cc(=O)[nH]c2ccc(Cl)cc12 (centres undefined) | 8.72 | 2.69 |  |  | 0.95 | 0.89 | 0
CC(=O)N1CCN(Cc2cccc(C#N)c2)CC1 | -0.339 | 6.59 |  | 0 | 1 | 0.99 | 
C=CC(=O)N(c1ccc(CC)c(I)c1)C(C(=O)NC(C)(C)C)c1cccnc1 (centres undefined) | 15.2 | 20.7 |  |  | 0.95 | 0.93 | 9.38
NC(=O)[C@@H]1CN(C2CCOCC2)C[C@H]1c1ccccc1 (stereo in doubt) | -22.2 | -23 |  | 0 | 1 | 1 | 0
Cc1ccncc1N(C)C(=O)[C@@H]1C[C@H]1CF (stereo in doubt) | -7.38 | 1.67 |  |  | 1.01 | 1.01 | 4.57
NS(=O)(=O)c1ccc(N2CCC(Nc3ccc(F)cc3)CC2)cc1 |  | 8.08 | 39.2 | 3.79 | 1 | 0.89 | 50.2

Structure (SMILES) | inhibition ([1]; 20.0 µM) [%] | inhibition ([1]; 50.0 µM) [%] | IC50 [2] [µM] | inhibition ([2]; 20.0 µM) [%] | relative solubility at 20 uM | relative solubility at 100 uM | inhibition ([2]; 50.0 µM) [%]
O=C(c1cc(=O)[nH]c2ccc(Cl)cc12)N1CCN(S(=O)(=O)c2ccccc2F)CC1 | -7.48 | 4.42 |  |  | 0.94 | 0.91 | 17.1
Cc1nnc(C2Cc3ccccc3CN2C(=O)CCl)o1 (centres undefined) | 16.3 | 41.9 |  |  | 0.99 | 0.99 | 18.1
CN(C)c1ncccc1N(C)C(=O)C1CCOc2ccc(Cl)cc21 (centres undefined) | 1.42 | -4.96 |  |  | 1 | 0.99 | 0
CS(=O)(=O)c1ncc(Cl)c(C(=O)Nc2ccccc2Cc2ccccc2)n1 | 96.3 | 94.7 | 0.826 |  | 0.96 | 0.79 | 100
CC(C)(C)NC(=O)C(c1cccnc1)N(C(=O)c1ccco1)c1ccc(C(C)(C)C)cc1 (centres undefined) | 74 | 86.6 |  |  | 1.01 | 0.99 | 23.9
C=CC(=O)N(c1ccc(C(C)(C)C)cc1)C(C(=O)NCCCC(=O)OCC)c1cccnc1 (centres undefined) | 6.16 | 30.9 |  | 0 | 0.99 | 0.96 | 14.6
CC(C(=O)O)c1ccc2c(c1)[nH]c1ccc(Cl)cc12 (centres undefined) | -0.548 | 3.97 |  | 0 | 1 | 0.98 | 
CC(C)(C)CC(=O)C(C#N)C(=O)Nc1ccccc1 (centres undefined) |  | 21.6 |  | 2.52 | 1 | 1 | 0
O=C(NCCNc1ccnc2cc(Cl)ccc12)Nc1ccc(F)cc1 | 20.4 | 29.5 |  | 0 | 0.99 | 0.94 | 0
O=C(NCc1ccccc1OCCO)C(=O)N[C@H]1C[C@H]1C1CCOCC1 (stereo in doubt) | 1.34 | -9.81 |  |  | 1.01 | 1 | 0
C=CC(=O)NCC(=O)N(CCN1CCOCC1)Cc1ccccc1Cl | -18.3 | -19.7 |  | 0 | 1 | 1 | 0
O=C(N/N=C/c1c[nH]cn1)C1CCCCC1 | -3.95 | 2.16 |  |  | 1.01 | 1 | -16.3
O=C1CC[C@@H](C(=O)Nc2cccc(Cl)c2)CN1 (stereo in doubt) | -24 | -3.68 |  |  | 1 | 1 | -12
C=CC(=O)N(c1ccc(C(F)(F)F)cc1)C(C(=O)NCCc1cccc(F)c1)c1cncc(Cl)c1 (centres undefined) | 50.2 | 68.2 | 4.84 |  | 0.94 | 0.28 | 82.1
O=C(CC(=O)N1CCOCC1)Nc1ccccc1 |  | -26.9 |  | 0 | 1 | 1.01 | 0
COc1cc(NC(=O)C(=O)Nc2cc(OC)c(OC)c(OC)c2)cc(OC)c1OC | -9.4 | 4.05 |  | 0.456 | 0.99 | 0.92 | 
COc1cccc(NC(=O)Nc2cccc(C#N)c2)c1 | 5.11 | 9.79 |  | 0 | 0.96 | 0.94 | 2.48
C=CC(=O)N(c1ccc2cc[nH]c2c1)C(C(=O)NC(C)(C)C)c1cccnc1 (centres undefined) | 5.38 | 10.5 |  | 0 | 0.84 | 0.93 | 
Cc1nnc(CNC(=O)C2CCOc3ccc(Cl)cc32)n1C1CC1 (centres undefined) | 6.91 | 0.282 |  |  | 1 | 1 | 0
C[C@H]1CN(Cc2ccccc2)CC[C@@H]1NC(=O)C(=O)NCc1ccccc1CN1CCCC[C@@H]1C (stereo in doubt) | -2.35 | 1.34 |  |  | 1 | 0.99 | 0
Cc1ccncc1NC(=O)Cc1ccccc1 | 8.19 | 19.5 |  | -0.63 | 1 | 1 | 16.1
O=C1C(=O)N(Cc2ccc(Br)cc2)c2ccccc21 | -3.27 | 0.439 | 0.747 |  | 1.01 | 0.9 | 100
C=CC(=O)N(c1ccc(C(F)(F)F)cc1)C(C(=O)Nc1c(C)cccc1CC)c1cccnc1 (centres undefined) | 22.3 | 38.6 |  | 23.9 | 0.89 | 0.79 | 
Cc1ccc(NCc2cc(NC(=O)OC(C)(C)C)ccc2Br)cn1 | -3.3 | 9.52 |  |  | 0.9 | 0.7 | 35.9
O=C(NCc1cccnn1)NC(Cc1ccccc1)c1cccs1 (centres undefined) |  | 13.9 |  | 0 | 1 | 1 | 0
